# From the supplement of paper PMC10307832
# What was measured:
# Experiment in all cases: relative viability (nuclei count vs DMSO), 5 days (fraction); higher = more cells survive
# [1] = compound: C=CCNC1=C2C[C@@H](C)C[C@H](OC)[C@H](O)[C@@H](C)/C=C(\C)[C@H](OC(N)=O)[C@@H](OC)/C=C\C=C(/C)C(=O)NC(=CC1=O)C2=O [17-AAG]
# Method in brief: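 In 1536-well plates, lung cancer cell lines rested overnight at 37 °C before five library-drug doses (not always all listed), √10 apart, were pinned onto vehicle-anchored plates. Nuclei were counted with MetaXpress from 4× Hoechst images taken after 5 days without medium change. Viability compares treated-well with vehicle-well nuclei as a median over plates, and plates needed control CV below 25% plus at least one doubling to pass.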
# [2] = compound: C=CCNC1=C2C[C@@H](C)C[C@H](OC)[C@H](O)[C@@H](C)/C=C(\C)[C@H](OC(N)=O)[C@@H](OC)/C=C\C=C(/C)C(=O)NC(=CC1=O)C2=O [17-AAG] + CC(=O)Nc1cccc(-n2c(=O)n(C3CC3)c(=O)c3c(Nc4ccc(I)cc4F)n(C)c(=O)c(C)c32)c1 [Trametinib] (partner 0.02 µM)
# Method in brief: (§1)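 Nuclei were stained with Hoechst during a one-step fixation (final 0.05% Triton X-100, 1% formaldehyde, 1 ug/ml Hoechst) carried out 5 days after dosing, then counted on 4× images. The cells, lung cancer lines in 1536-well plates, had been dosed by pin tool the day after seeding with one drug alone or a fixed anchor-drug dose plus five library-drug doses (not always all listed) in √10 steps. Relative viability is the nuclei count in treated wells divided by that in vehicle wells, and each value is the median of duplicate plates.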
# [3] = compound: C=CCNC1=C2C[C@@H](C)C[C@H](OC)[C@H](O)[C@@H](C)/C=C(\C)[C@H](OC(N)=O)[C@@H](OC)/C=C\C=C(/C)C(=O)NC(=CC1=O)C2=O [17-AAG] + COc1cccc2cc(-c3nc([C@H]4CC[C@H](C(=O)O)CC4)n4ncnc(N)c34)[nH]c12 [OSI-027] (partner 0.5 µM)
# Method in brief: as §1
# [4] = compound: C=CCNC1=C2C[C@@H](C)C[C@H](OC)[C@H](O)[C@@H](C)/C=C(\C)[C@H](OC(N)=O)[C@@H](OC)/C=C\C=C(/C)C(=O)NC(=CC1=O)C2=O [17-AAG] + N=C(N)NC(=N)NCCc1ccccc1 [Phenformin] (partner 250 µM)
# Method in brief: as §1
Cell Line,relative viability ([1]; 0.00128 µM),relative viability ([1]; 0.004048 µM),relative viability ([1]; 0.0128 µM),relative viability ([1]; 0.04048 µM),relative viability ([1]; 0.128 µM),relative viability ([2]; first compound 0.00128 µM),relative viability ([2]; first compound 0.004048 µM),relative viability ([2]; first compound 0.0128 µM),relative viability ([2]; first compound 0.04048 µM),relative viability ([2]; first compound 0.128 µM),relative viability ([3]; first compound 0.00128 µM),relative viability ([3]; first compound 0.004048 µM),relative viability ([3]; first compound 0.0128 µM),relative viability ([3]; first compound 0.04048 µM),relative viability ([3]; first compound 0.128 µM),relative viability ([4]; first compound 0.00128 µM),relative viability ([4]; first compound 0.004048 µM),relative viability ([4]; first compound 0.0128 µM),relative viability ([4]; first compound 0.04048 µM),relative viability ([4]; first compound 0.128 µM)
NCI-H2342,0.951,1.01,1.01,0.78,0.428,0.8,0.799,0.79,0.631,0.7,0.552,0.716,0.584,0.504,0.425,0.562,0.792,0.554,0.398,0.379
NCI-H2347,0.958,0.998,1.13,0.557,0.385,0.335,0.275,0.351,0.288,0.321,0.323,0.395,0.464,0.241,0.201,0.466,0.38,0.275,0.187,0.191
NCI-H2405,1.02,0.957,0.663,0.251,0.236,0.663,0.482,0.338,0.204,0.171,0.636,0.686,0.532,0.223,0.181,0.398,0.383,0.33,0.209,0.185
NCI-H3122,0.99,0.867,0.29,0.155,0.134,0.23,0.283,0.173,0.177,0.106,0.713,0.169,0.126,0.12,0.114,0.396,0.329,0.129,0.118,0.117
